Like-named read-outs stand apart in the source and are kept apart here.
Test: Phase 1 study of pharmacokinetics and safety of imeglimin in subjects with renal impairment compared to normal renal function
Assay type: in vivo, human
Conditions: for concentration at 8 day / Vd/F / Tmax / Cmax / half-life / AUC / AUC(0-t) / CL renal: human, po; for concentration at 8 day / Vd/F / Tmax / Cmax / half-life / AUC / AUC(0-t): plasma; for Vd/F: read-out: Vz/F; for Tmax: median, read-out: tmax; for AUC: read-out: AUC0-τ; for CL renal: urine; for difference in exposure vs normal subjects: Day 8
Procedure: An open-label, parallel-group, multi-center, multiple oral dose study to investigate the pharmacokinetics of imeglimin in subjects with renal impairment compared to subjects with normal renal function was completed.
In this study, a total of 51 subjects received imeglimin at the daily dose of 1000 mg, administered either as 1000 mg QD (once a day) or 500 mg bid (twice a day) during 8 days. […] Twenty-four control subjects with normal renal function were matched to mild and moderate (10 receiving QD and 8 receiving bid regimen) and to severe (6 receiving bid regimen) renal impaired subjects. Measurement of the urine to plasma ratio of creatinine using 24 hours urine sampling was calculated (CLCrea).
Imeglimin was administered in the morning time during 8 consecutive days in the group of subjects receiving 1000 mg once a day and in the morning and evening time during 7 consecutive days followed by a morning administration of 500 mg in the morning time on Day 8 in the group of subjects receiving 500 mg twice a day. Morning administrations on Days 1 and 8 were performed on a fasted state, after a 10 hours overnight fasting and during 4 hours after imeglimin administration.
Inclusion Criteria: For subjects with normal renal functions: CLCrea>80 mL/min based on calculation using 24-hrs sampling on day −2. For subjects with impaired renal function: CLCrea 50 to 80 mL/min for subjects with mild renal impairment, 30 to <50 mL/min for subjects with moderate renal impairment, and <30 mL/min for subjects with severe renal impairment based on calculation using 24-hrs sampling on day −2.
Pharmacokinetic parameters included apparent volume of distribution during the terminal phase following extravascular administration (Vz/F), area under the curve of the plasma concentration as a function of time (AUC0-t), the maximum observed concentration (Cmax), the time to maximum concentration (tmax), the plasma half-life (t1/2), the total body clearance of drug from plasma following extravascular administration (CL/F), and other parameters.
The urinary excretion parameters of imeglimin in subjects with differing degrees of renal impairment following QD or bid oral doses of imeglimin on day 8 are summarized in Table 3 and Table 4. Parameters measured include amount of unchanged drug excreted in urine as a function of time (Ae0-t), renal clearance (CLR), and the amount of unchanged drug excreted in urine during one dosing interval (Ae0-τ), and the percentage of administered dose excreted in urine during one dosing interval (fe0-τ).
For the evaluation of safety and tolerability of multiple oral doses of 1000 mg imeglimin QD (i.e. a total dose of 8000 mg imeglimin) or 500 mg imeglimin BID (i.e. a total dose of 7500 mg imeglimin), laboratory tests (hematology, clinical chemistry, urinalysis), determination of vital signs, ECG recordings, questioning of AEs and physical examinations were performed. […] The incidence of AEs observed within the course of the study was low. Overall 31 out of 51 subjects reported 54 treatment emergent AEs. Of these, only 15 were judged as likely related to the study drug. The majority (39 AEs) were assessed as unlikely related. Based on these low incidence no clear differences between the dose regimens and between the renal impairment groups can be shown.

[1] = 500 mg, 500 mg bid oral, Day 8, Part 1 normal renal function (N = 8), geometric mean
[2] = 500 mg, 500 mg bid oral, Day 8, Part 2 CKD Stage 4 (severe renal impairment; N = 5), geometric mean
[3] = 500 mg, 500 mg bid oral, Day 8, Part 2 normal renal function (N = 6), geometric mean
[4] = 1000 mg, 1000 mg QD oral, Day 8, CKD Stage 3 (moderate renal impairment; N = 6), geometric mean
[5] = 1000 mg, 1000 mg QD oral, Day 8, CKD stage 2 (mild renal impairment; N = 5), geometric mean
[6] = 1000 mg, 1000 mg QD oral, Day 8, normal renal function (N = 8), geometric mean
[7] = 1000 mg, 1000 mg QD oral, Day 8, normal renal function (N = 10), geometric mean

**Q.** Which concentration at 8 day (500 mg, 500 mg bid oral, Day 8, Part 1 CKD Stage 3 (moderate renal impairment; N = 6), geometric mean, read-out: Cav) does the source give for `C[C@H]1N=C(N(C)C)N=C(N)N1` [imeglimin, (6R)—N^2, N^2,6-trimethyl-3,6-dihydro-1,3,5-triazine-2,4-diamine] here?
**A.** 1430 ng/mL

**Q.** And the Vd/F (500 mg, 500 mg bid oral, Day 8, Part 1 CKD Stage 3 (moderate renal impairment; N = 6), geometric mean)?
**A.** 922 L

**Q.** And the Tmax (500 mg, 500 mg bid oral, Day 8, Part 1 CKD Stage 3 (moderate renal impairment; N = 6))?
**A.** 3.5 h

**Q.** And the Cmax [1]?
**A.** 1030 ng/mL

**Q.** What about the half-life [1] of the same molecule?
**A.** 13.2 h

**Q.** What about the AUC [1] of the same molecule?
**A.** 7390 ng·h/mL

**Q.** What about the concentration at 8 day (500 mg, 500 mg bid oral, Day 8, Part 1 normal renal function (N = 8), geometric mean, read-out: Cav) of the same molecule?
**A.** 616 ng/mL

**Q.** What about the concentration at 8 day (500 mg, 500 mg bid oral, Day 8, Part 1 normal renal function (N = 8), geometric mean, read-out: Cmin) of the same molecule?
**A.** 202 ng/mL

**Q.** What about the Vd/F [1] of the same molecule?
**A.** 1290 L

**Q.** And the Tmax (500 mg, 500 mg bid oral, Day 8, Part 1 normal renal function (N = 8))?
**A.** 3.5 h

**Q.** And the Cmax [2]?
**A.** 2860 ng/mL

**Q.** What about the half-life [2] of the same molecule?
**A.** 17.6 h

**Q.** What about the AUC [2] of the same molecule?
**A.** 24800 ng·h/mL

**Q.** What about the concentration at 8 day (500 mg, 500 mg bid oral, Day 8, Part 2 CKD Stage 4 (severe renal impairment; N = 5), geometric mean, read-out: Cav) of the same molecule?
**A.** 2070 ng/mL

**Q.** And the Vd/F [2]?
**A.** 511 L

**Q.** What about the Tmax (500 mg, 500 mg bid oral, Day 8, Part 2 CKD Stage 4 (severe renal impairment; N = 5)) of the same molecule?
**A.** 3.5 h

**Q.** And the Cmax [3]?
**A.** 998 ng/mL

**Q.** And the half-life [3]?
**A.** 15 h

**Q.** And the AUC [3]?
**A.** 6970 ng·h/mL

**Q.** What about the concentration at 8 day (500 mg, 500 mg bid oral, Day 8, Part 2 normal renal function (N = 6), geometric mean, read-out: Cav) of the same molecule?
**A.** 581 ng/mL

**Q.** What about the Vd/F [3] of the same molecule?
**A.** 1550 L

**Q.** What about the Tmax (500 mg, 500 mg bid oral, Day 8, Part 2 normal renal function (N = 6)) of the same molecule?
**A.** 3.75 h

**Q.** And the AUC(0-t) [4]?
**A.** 29100 ng·h/mL

**Q.** What about the Cmax [4] of the same molecule?
**A.** 2570 ng/mL

**Q.** What about the half-life [4] of the same molecule?
**A.** 23.4 h

**Q.** And the concentration at 8 day (1000 mg, 1000 mg QD oral, Day 8, CKD Stage 3 (moderate renal impairment; N = 6), geometric mean, read-out: Cav)?
**A.** 1210 ng/mL

**Q.** What about the concentration at 8 day (1000 mg, 1000 mg QD oral, Day 8, CKD Stage 3 (moderate renal impairment; N = 6), geometric mean, read-out: Cmin) of the same molecule?
**A.** 335 ng/mL

**Q.** What about the Vd/F [4] of the same molecule?
**A.** 1160 L

**Q.** And the Tmax (1000 mg, 1000 mg QD oral, Day 8, CKD Stage 3 (moderate renal impairment; N = 6))?
**A.** 5 h

**Q.** And the AUC(0-t) [5]?
**A.** 20100 ng·h/mL

**Q.** What about the Cmax [5] of the same molecule?
**A.** 2050 ng/mL

**Q.** What about the half-life [5] of the same molecule?
**A.** 15 h

**Q.** What about the concentration at 8 day (1000 mg, 1000 mg QD oral, Day 8, CKD stage 2 (mild renal impairment; N = 5), geometric mean, read-out: Cav) of the same molecule?
**A.** 838 ng/mL

**Q.** What about the concentration at 8 day (1000 mg, 1000 mg QD oral, Day 8, CKD stage 2 (mild renal impairment; N = 5), geometric mean, read-out: Cmin) of the same molecule?
**A.** 178 ng/mL

**Q.** What about the Vd/F [5] of the same molecule?
**A.** 1070 L

**Q.** And the Tmax (1000 mg, 1000 mg QD oral, Day 8, CKD stage 2 (mild renal impairment; N = 5))?
**A.** 4 h

**Q.** And the half-life [6]?
**A.** 16.4 h

**Q.** What about the Vd/F [6] of the same molecule?
**A.** 1570 L

**Q.** And the AUC(0-t) [7]?
**A.** 15400 ng·h/mL

**Q.** What about the Cmax [7] of the same molecule?
**A.** 1750 ng/mL

**Q.** What about the concentration at 8 day (1000 mg, 1000 mg QD oral, Day 8, normal renal function (N = 10), geometric mean, read-out: Cmin) of the same molecule?
**A.** 115 ng/mL

**Q.** And the Tmax (1000 mg, 1000 mg QD oral, Day 8, normal renal function (N = 10))?
**A.** 4 h

**Q.** And the CL renal (500 mg, 500 mg bid oral, Day 8, CKD Stage 2 (mild renal impairment) (N = 4), geometric mean (CV %), read-out: CLR)?
**A.** 323 mL/min

**Q.** What about the CL renal (500 mg, 500 mg bid oral, Day 8, CKD Stage 3 (moderate renal impairment) (N = 6), geometric mean (CV %), read-out: CLR) of the same molecule?
**A.** 193 mL/min

**Q.** What about the CL renal (500 mg, 500 mg bid oral, Day 8, CKD Stage 4 (severe renal impairment) (N = 5), geometric mean (CV %), read-out: CLR) of the same molecule?
**A.** 140 mL/min

**Q.** What about the CL renal (500 mg, 500 mg bid oral, Day 8, normal renal function (N = 6), geometric mean (CV %), read-out: CLR) of the same molecule?
**A.** 548 mL/min

**Q.** And the CL renal (500 mg, 500 mg bid oral, Day 8, normal renal function (N = 8), geometric mean (CV %), read-out: CLR)?
**A.** 501 mL/min

**Q.** What about the CL renal (1000 mg, 1000 mg QD oral, Day 8, CKD Stage 2 (mild renal impairment), N = 2, min, max, read-out: CLR (renal clearance)) of the same molecule?
**A.** 388 to 522 mL/min

**Q.** What about the CL renal (1000 mg, 1000 mg QD oral, Day 8, CKD Stage 3 (moderate renal impairment) (N = 6), geometric mean, read-out: CLR (renal clearance)) of the same molecule?
**A.** 197 mL/min

**Q.** What about the CL renal (1000 mg, 1000 mg QD oral, Day 8, normal renal function (N = 10), geometric mean, read-out: CLR (renal clearance)) of the same molecule?
**A.** 418 mL/min

**Q.** What about the “difference in exposure vs normal subjects” value (“difference in exposure” below) (mild renal impairment) of the same molecule?
**A.** up to 1.5 fold

**Q.** And the “difference in exposure” value (moderate renal impairment)?
**A.** ≤ 2.3 fold

**Q.** What about the “AEs assessed as unlikely related” value (of 54 treatment emergent AEs) of the same molecule?
**A.** 39

**Q.** And the “AEs judged as likely related to the study drug” value (of 54 treatment emergent AEs)?
**A.** 15

**Q.** What about the “Steady-state attained by” value (repeated dosing of 1000 mg QD and 500 mg bid) of the same molecule?
**A.** ≤ 6 days

**Q.** And the “decrease in renal clearance vs normal subjects” value (severe renal impairment)?
**A.** ≤ 74%

**Q.** What about the “decrease in total oral body clearance vs normal subjects” value (severe renal impairment) of the same molecule?
**A.** up to 72%

**Q.** And the “difference in exposure” value (severe renal impairment)?
**A.** up to 3.6 fold

**Q.** And the “general safety and tolerability assessment” value (total daily dose of 1000 mg over 8 days)?
**A.** good or very good tolerability

Reference: patent US12036226B2, “Methods of treating subjects having diabetes with chronic kidney disease” (Poxel SA, priority 2018, dated 2024)
